Each structure is given as a SMILES string.

In the assay the target is β2AR-Gs (Homo sapiens, UniProt P07550). Kind of assay: Gs activation by [35S]GTPγS binding, reconstituted β2AR-Gs in lipid bicelles. Conditions: 10 μM DFPQ, 1 μM ISO, FIG. 5E. In kind it is biochemical. As for the experimental part: FIGS. 5A-5E illustrate certain embodiments of the disclosure. FIG. 5A: Primary titration screening data of DFPQ. […] FIGS. 5C and 5D: […] Wells were read every 2 min post agonist addition. FIG. 5E: […] Bound [^35S]-GTPγS was collected by rapid filtration on GF/B filters, washed 4 times with 4 ml of cold GTPγS wash buffer and analyzed by liquid scintillation. […]® ADRB2 cells (DiscoveRx) were maintained with the AssayCompleteTM Cell Culture kit (DiscoveRx catalog #92-[…]). […] HEK 293 cells stably overexpressing β2AR included 250 μg/ml G418. Cells were incubated at 37° C. in a humidified incubator with 5% CO2. […] Cells were read every three minutes for 18 minutes on a PolarStar Optima plate reader (BMG) to establish peak signal. […] Luminescence was determined at room temperature (23-25° C.) on a PolarStar Optima plate reader (BMG). […] Relative assay bias was calculated from the ratio of normalized cAMP and arrestin recruitment responses. […] BRET was measured using a Tecan Infinite F500 microplate reader. […] Bound [35 S]GTPγS was collected by rapid filtration on GF/B filters, washed 4 times with 4 ml of cold GTPγS wash buffer and analyzed by liquid scintillation counting. […] Immunoprecipitated proteins were separated by SDS-PAGE and analyzed by western blot using a β2AR C-terminal tail or phospho-specific antibody. […] Band intensity was measured by densitometry using ImageJ. […]
β2AR-Gs, sequence (P07550 whole entry): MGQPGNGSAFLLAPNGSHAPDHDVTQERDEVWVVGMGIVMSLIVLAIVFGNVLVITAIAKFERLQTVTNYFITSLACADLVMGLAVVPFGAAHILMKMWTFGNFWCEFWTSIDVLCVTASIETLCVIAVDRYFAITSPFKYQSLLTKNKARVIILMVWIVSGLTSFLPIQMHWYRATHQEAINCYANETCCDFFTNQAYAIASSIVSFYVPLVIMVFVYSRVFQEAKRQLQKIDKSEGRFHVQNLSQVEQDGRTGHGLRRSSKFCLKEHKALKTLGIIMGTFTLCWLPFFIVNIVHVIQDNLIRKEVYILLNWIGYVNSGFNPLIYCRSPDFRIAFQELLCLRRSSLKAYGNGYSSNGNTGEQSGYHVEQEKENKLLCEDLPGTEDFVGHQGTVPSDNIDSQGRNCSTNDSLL
β2AR-Gs, sequence (P63092 whole entry partner): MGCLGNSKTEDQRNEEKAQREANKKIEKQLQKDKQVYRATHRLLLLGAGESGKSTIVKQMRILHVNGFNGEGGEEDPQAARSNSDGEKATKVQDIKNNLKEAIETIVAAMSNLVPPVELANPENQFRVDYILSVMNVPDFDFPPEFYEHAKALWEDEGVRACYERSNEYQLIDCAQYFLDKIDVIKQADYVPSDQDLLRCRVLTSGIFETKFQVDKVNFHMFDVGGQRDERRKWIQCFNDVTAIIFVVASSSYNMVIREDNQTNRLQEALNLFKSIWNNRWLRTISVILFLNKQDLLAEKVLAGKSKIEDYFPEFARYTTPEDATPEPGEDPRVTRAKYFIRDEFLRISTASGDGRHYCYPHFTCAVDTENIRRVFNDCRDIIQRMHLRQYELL
β2AR-Gs, sequence (P62873 whole entry partner): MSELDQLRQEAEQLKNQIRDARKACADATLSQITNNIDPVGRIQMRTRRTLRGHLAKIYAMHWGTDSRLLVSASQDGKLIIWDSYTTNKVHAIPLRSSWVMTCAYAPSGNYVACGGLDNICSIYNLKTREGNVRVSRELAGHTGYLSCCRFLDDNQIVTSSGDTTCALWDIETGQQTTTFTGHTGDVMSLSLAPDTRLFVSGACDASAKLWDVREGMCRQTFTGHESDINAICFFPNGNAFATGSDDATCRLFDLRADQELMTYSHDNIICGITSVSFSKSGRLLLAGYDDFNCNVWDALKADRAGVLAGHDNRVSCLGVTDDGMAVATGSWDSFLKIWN
β2AR-Gs, sequence (P59768 2-68 partner): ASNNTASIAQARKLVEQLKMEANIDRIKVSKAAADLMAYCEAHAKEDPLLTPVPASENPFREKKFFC
In general terms: GTPγS is a poorly hydrolysed GTP analogue; its binding reports G protein activation.

With `Fc1ccc(Nc2nc(NC3CCCCC3)c3ccccc3n2)cc1F` [DFPQ, N^4-cyclohexyl-N^2-(3,4-difluorophenyl)quinazoline-2,4-diamine], the “effect on ISO-dependent activation of purified Gs by the β2AR (GTPγS binding)” value is “no effect”.

The values are drawn from patent US20240166626A1, “Compounds and Methods for Preventing, Treating, or Ameliorating Airway Disease” (THOMAS JEFFERSON UNIVERSITY, priority 2021, published 2024).
